Laboratory results reported in US12083114B2, “Inhibitors of SARM1 in combination with neuro-protective agents” (Disarm Therapeutics, Inc., priority 2018, dated 2024).

Tested on: DRG axons
Assay: Axon degeneration assay: SARM1 inhibitor with DLK inhibitor, mouse DRG drop culture, manual axotomy
Format: cell-based
Details: 16 hours post-axotomy
Method: Mouse dorsal root ganglion neurons (DRGs) were dissected out of E12.5 CD1 mice (50 ganglia per embryo) and incubated with 0.5% Trypsin solution containing 0.02% EDTA (Gibco) at 37° C. for 15 min. The cells were then triturated by gentle pipetting and washed 3 times with DRG growth medium (Neurobasal medium (Gibco) containing 2% B27 (Invitrogen), 100 ng/ml 2.5S NGF (Harland Bioproducts), […] 5-fluoro-2′ deoxyuridine (Sigma), penicillin, and streptomycin). Cells were suspended in the DRG growth medium. DRG drop cultures were created by spotting 5000 cells/well into the center of each well of a 96-well tissue culture plate coated with poly-D-Lysine (0.1 mg/ml; Sigma) and laminin ([…]; Invitrogen). Cells were allowed to adhere to the plates in a humidified tissue culture incubator (5% CO2) for 15 min and then DRG growth medium was gently added ([…] well). DRG neurons were maintained in neurobasal medium supplemented with L-glutamine (Invitrogen), 2% (vol/vol) B27 (Invitrogen), 50 ng/mL NGF (Harlan Laboratories), and 1 μM 5-fluoro-2′deoxyuridine plus 1 μM uridine (Sigma) to induce death of mitotic cells. DRG neurons were then seeded on plates pre-coated with poly-D-lysine and laminin.
2 hours prior to axotomy, DRG cultures were treated with SARM1 inhibitors, in the continued presence of the DLK inhibitor. […] Isoquinoline SARM1 inhibitors tested included I-26 and I-86, while isothiazole SARM1 inhibitors tested included II-6 and II-32. The SARM1 inhibitors were tested using concentrations ranging from 0.1 to 30 μM.
A manual axotomy was performed at time 0 by transecting the axons of the DRG neurons with a blade. After the axotomy, DRG cultures remained exposed to the SARM1 inhibitor alone, DLK inhibitor alone, or the combination of SARM1 inhibitor and DLK inhibitor. At 16 hours, DRG cultures were fixed in a buffered solution containing 1% PFA and sucrose and stored at 4° C. prior to imaging. Bright-field images of DRG axons and cell bodies were collected using the 20× water immersion lens of a Phenix automated confocal microscope (PerkinElmer) and quantitation of axonal damage was performed using in-house developed scripts (Acapella, PerkinElmer). The effect of DLK inhibitor alone in protecting distal axons from fragmentation was determined at concentrations of 100 nM and 300 nM. The effect of combining the DLK inhibitor with varying concentrations of a SARM1 inhibitor was compared to the individual protective effects of either 100 nM or 300 nM of DLK inhibitor alone or an equivalent concentration of a SARM1 inhibitor alone.

[1] = SARM1 inhibitor alone, 1.1 μM, FIG. 1B/2B

## N#Cc1ccnc(Nc2cc(C3CCN(C4COC4)CC3)cc(N3CCC(F)(F)C3)n2)c1 [DLK inhibitor, 2-((6-(3,3-difluoropyrrolidin-1-yl)-4-(1-(oxetan-3-yl)piperidin-4-yl)pyridin-2-yl)amino)isonicotinonitrile, reference compound]
100 nM DLK inhibitor alone
  axonal protection (degeneration index of DRG axons): no axonal protection
300 nM DLK inhibitor alone
  axonal protection (degeneration index of DRG axons): modest but statistically significant level of axonal protection

## Ic1cccc2cnccc12 [I-26]
[1]
  axonal protection (degeneration index of DRG axons): modest level of protection
SARM1 inhibitor alone, 1.1, 3.3, 10 or 30 μM (all tested concentrations), FIG. 1A
  axonal protection (degeneration index of DRG axons): significant axonal protection over all tested concentrations

## COc1cc(Br)c2ccncc2c1 [I-86]
[1]
  axonal protection (degeneration index of DRG axons): modest level of axonal protection
SARM1 inhibitor alone, 1.1 μM, FIG. 2A
  axonal protection (degeneration index of DRG axons): a small, but statistically significant amount of axonal protection

## N#Cc1c(O)nsc1Nc1ccccc1C(F)(F)F [II-6]
SARM1 inhibitor alone, 3.3 μM, FIG. 3B
  axonal protection (degeneration index of DRG axons): modest level of protection
SARM1 inhibitor alone, 1.1 or 3.3 μM, FIG. 3A
  axonal protection (degeneration index of DRG axons): modest, but statistically significant axonal protection

## COCCn1sc(Nc2ccccc2C(F)(F)F)c(C#N)c1=O [II-32]
SARM1 inhibitor alone, 0.11, 0.33 or 1.1 μM, FIG. 4A
  axonal protection (degeneration index of DRG axons): modest but not statistically significant axonal protection
SARM1 inhibitor alone, 0.11, 0.33 or 1.1 μM, FIG. 4B
  axonal protection (degeneration index of DRG axons): only slight and not statistically significant protection
